Source: ChEMBL document CHEMBL1152316, “Caryophyllenes from a fungal culture of Chrysosporium pilosum” (2009)
Converted amounts (≈) assume the structure as drawn. The source made the active and inactive calls. No cut-off for these calls is given here.

What was measured:
Saccharomyces cerevisiae [1] = experiment: Antifungal activity against Saccharomyces cerevisiae PM503 assessed as zone of inhibition after 48 hrs; type: functional, organism-based
Saccharomyces cerevisiae [2] = experiment: Antifungal activity against Saccharomyces cerevisiae PM503 after 48 hrs; type: functional; settings: PM503, 48 h

| Compound | Activity (Saccharomyces cerevisiae [1]) | MIC (Saccharomyces cerevisiae [2]) [µg/mL] |
| --- | --- | --- |
| C/C1=C/C(=O)[C@@H](O)[C@@]2(CO2)[C@@H]2CC(C)(C)[C@H]2CC1 | inactive |  |
| C/C1=C/[C@H](O)C(=O)[C@@H](CO)[C@@H]2CC(C)(C)[C@H]2CC1 | inactive |  |
| C/C1=C/C(=O)[C@@H](O)[C@@H](CO)[C@@H]2CC(C)(C)[C@H]2CC1 | inactive | 60 (≈ 238 µM) |
| C=C1CC[C@H]2[C@@H](CC2(C)C)[C@H]2CO[C@@](O)(C1)C2=O | inactive |  |
